Results reported in patent US20220187282A1, “CARDIOMYOCYTE PROLIFERATION” (The Council of the Queensland Institute of Medical Research, priority 2019, published 2022).

Legend:
Format in all cases: cell-based, human
mature hCO = experiment: RNA-sequencing of mature hCO treated with compounds; conditions: 2 days; for genes regulated (RNA-seq): 3 μM compound 3, 0.3 μM compound 63, 1 μM compound 65
Description: For each experiment 15-20 hCOs were pooled, snap frozen and RNA extracted using Trizol (ThermoFisher Scientific), treated with DNAse (Qiagen) and purified using RNeasy Minielute Cleanup Kit (Qiagen). The quality of the RNA was assessed by Fragment Analyzer (Advances Analytical Technologies) and samples with RNA quality number >8.9 were used for library preparation. RNA samples were processed with Illumina TruSeq Stranded mRNA Library prep kit selecting for poly(A) tailed RNA following the manufacturer's recommendations. Libraries were quantified with Qubit HS (ThermoFisher) and Fragment Analyzer (Advances Analytical Technologies) adjusted to the appropriate concentration for sequencing. Indexed libraries were pooled and sequenced at a final concentration of 1.8 pmol/L on an Illumina NextSeq 500 high-output run using paired-end chemistry with 75 bp read length.
The sequencing data was demultiplexed using Illumina bc12fastq2-v2.17. The quality of the reads was assessed thanks to FastQC (https://www.bioinformatics.babraham.ac.uk/projects/fastqc/). The reads were then processed and mapped to the human genome hg38 using the Bcbio-nextgen framework version 1.0.3 (https://github.com/chapmanb/bcbio-nextgen). The aligner used was HISAT2 2.0.5. For sample quality assessment, raw counts were normalised with DESeq2 regularized logarithm function. A principal component analysis (PCA) was performed using R v 3.3.1(Team, 2015) and led to the detection of a batch effect among samples which was corrected using the removeBatchEffect function from Limma v3.30.13. The identification of the differentially expressed genes between treated and non-treated samples was performed using DESeq2 v1.14.1 (Love et al., 2014) in R v 3.3.1 (Team, 2015) using the design ˜Batch+Compound to account for the batch effect directly. A FDR of 0.1 was defined to call for differentially expressed genes. The mechanistic networks in were generated using IPA upstream analysis (QIAGEN Inc., https://www.qiagenbioinformatics.com/products/ingenuity-pathway-analysis). Gene Ontology (GO) annotations enrichment analyses were performed with GOSeq v1.28.0 (Young et al., 2010), were generated in R using ggplot2 (http://ggplot2.tidyverse.org/index.html) and package GOSemSim v2.2.0 (Yu et al., 2010) for term similarities.
In order to determine the biological processes driving the pro-proliferative effects of our hit compounds, we performed RNA-sequencing (RNA-seq) and single organoid quantitative proteomics (FIG. 4A). These analyses were performed on hCOs treated with compounds 3, 63 and 65 at concentrations of 3 μM, 0.3 μM and 1 μM, respectively. RNA-seq for hCO treated with compounds 3 and 65 clustered distinctly in principal component analysis (FIG. 4B) and regulated a total of 239 and 207 genes (FIG. 9A), respectively.

mature hCOs = experiment: mature hCO, mitosis (pH3) of cardiomyocytes; conditions: 2 days, optimal concentrations
Description: Whole-Mount Immunostaining hCOs were fixed for 60 min with 1% paraformaldehyde (Sigma) at room temperature and washed 3× with PBS, after which they were incubated with primary antibodies (see Star Methods Table) in Blocking Buffer, 5% FBS and 0.2% Triton-X-100 (Sigma) in PBS overnight at 4° C. Cells were then washed in Blocking Buffer 2× for 2 h and subsequently incubated with secondary antibodies (see Star Methods Table) and Hoechst33342 (1:1000) overnight at 4° C. They were washed in Blocking Buffer 2× for 2 h and imaged in situ or mounted on microscope slides using Fluoromount-G (Southern Biotech).
For more detailed images an Olympus IX81 confocal microscope was used for mounted hCO imaging. For cell cycle analysis experiments 3 random fields of view were imaged and manually quantified for proliferation. These were added together to calculate the percentage of hPSC-CM proliferation in each hCO.
Hits were next validated in mature hCOs using a targeted concentration range based on their active concentrations in the initial immature hCO screen (FIG. 3A). Proliferation markers were quantified using high magnification confocal imaging as we found flow cytometry to be inaccurate in hCO (data not shown). Compounds 3, 63 and 65 had no impact on contractile force (FIG. 3B) at concentrations of 3 μM, 0.3 μM and 1 μM, respectively. […]

[1] = system: NAP1L1 Cys-388, NAP1L4 Cys-383; experiment: quantifying prenylated (farnesylated) proteins in hCO proteomics
Description: Targeted data extraction to quantify prenylated peptides was performed manually in the Skyline Environment (MacLean et al., 2010) on Andremoda/MaxQuant search results which included the variable modification of farnesylation (cysteine; C15H24; 204.1878) and geranylation (cysteine; […]; 272.2504) with neutral loss. Only peptides with an Andromeda score >100 and a localization probability >0.75% were included in the analysis.
Given that several metabolites of the mevalonate pathway are required for post-translational modifications such as prenylation, we next performed targeted data extraction of our proteomic analysis (Gillet et al., 2012) for the addition of geranylgeranyl or farnesyl groups. We identified key targets of farnesylation, including NAP1L1 at Cys-388, which was also shown to be farnesylated in a prior study (Kho et al., 2004), and NAP1L4 at Cys-383, which we have identified as a novel farnesylated protein (FIG. 15C).

SMILES	network significantly regulated (network analysis of RNA-seq) (mature hCO)	transcription of cell cycle controllers PLK1, CCNB2, CCND1, CCNA2 and FOXM1 (mature hCO; 3 μM)	genes regulated (RNA-seq) (mature hCO) [genes]	cell cycle progression and mitosis of cardiomyocytes (pH3+) (mature hCOs)	farnesylation of NAP1L1 at Cys-388 [1]	farnesylation of NAP1L4 at Cys-383 [1]	mevalonate pathway enzymes SQLE, HMGCS1 and CYP51A1 (mature hCO; 1 μM)	networks regulated based on RNA-seq data (gene ontologies) (mature hCO; 1 μM)	transcription of CDKN2B (p15) (mature hCO; 1 μM)
Cc1ccc(NC(=O)c2ccnc(N3CCOCC3)c2)cc1Nc1ccnc(N2CC(C)OC(C)C2)n1 (centres unmarked) [compound 3]	MAPK14 (p38α) network	upregulated	239	promoted cell cycle progression and mitosis	increased	only increased farnesylation of NAP1L1	–	–	–
Cc1cc(Oc2ccnc(Nc3ccc(S(N)(=O)=O)cc3)c2)c(-c2ccccn2)nc1C [compound 65]	TGFβ receptor (TGFβR) and bone morphogenic protein receptor (BMPR) networks	–	207	promoted cell cycle progression and mitosis	increased	increased	activated	an extracellular matrix network and a cholesterol biosynthesis network	inhibited
